Measurements from patent US9586896B2, “Nitroxyl donors with improved therapeutic index” (Cardioxyl Pharmaceuticals, Inc., priority 2013, dated 2017).
Values after ≈ are worked out from the molar mass of the structure shown.

Legend:
[1] = Solubility in water in the absence of excipients; assay type: physicochemical; details: for solubility thermodynamic: thermodynamic from solid, read-out: equilibrium solubility in water
Experimental: Additionally, a sample of the compound of formula (1) was prepared in water to determine the approximate solubility of the compound in the absence of excipients (e.g., CAPTISOL®). A concentration of approximately 300 mg/mL was achieved, not accounting for the volume contribution of the compound. The pH of the sample was determined to be 2.8, which was adjusted to the target of 4.0 using 0.1 N NaOH. Upon pH adjustment, precipitation of a small amount of solid was observed. […] A similar analysis was performed for the compound of formula (2). The compound of formula (2) has a solubility of approximately 10 mg/mL.

[2] = Nitroxyl production via N2O quantification (GC headspace analysis); assay type: physicochemical; details: PBS, 37° C.
Text: Nitrous oxide (N2O) is produced via the dimerization and dehydration of HNO, and is the most common marker for nitroxyl production (Fukuto et al., Chem. Res. Toxicol. 18:790-801 (2005)). […] Using either nitrous oxide gas or Angeli's salt (AS) as a standard, the relative amounts of N2O released from compounds of the disclosure was examined via gas chromatography (GC) headspace analysis.
A procedure for determining the relative amounts of N2O released from compounds of the disclosure is as follows. GC was performed on an Agilent gas chromatograph equipped with a split injector (10:1 splitting), microelectron capture detector, and a HP-MOLSIV 30 m×0.32 mm×25 μm molecular sieve capillary column. Helium was used as the carrier (4 mL/min) gas and nitrogen was used as the make-up (20 mL/min) gas. The injector oven and the detector oven were kept at 200° C. and 325° C., respectively. All nitrous oxide analyses were performed with the column oven held at a constant temperature of 200° C.
All gas injections were made using an automated headspace analyzer. Vial pressurization was 15 psi. The analyzer's sample oven, sampling valve, and transfer line were kept at 40° C., 45° C., and 50° C., respectively. The oven stabilization, vial pressurization, loop fill, loop equilibration, and sample injection times were 1.00 min., 0.20 min., 0.20 min., 0.05 min., and 1.00 min., respectively.
All determinations used a batch of nominal 20 mL headspace vials with volumes pre-measured for sample uniformity (actual vial volume varied by ≦2.0% relative standard deviation (n=6)). The average vial volume for the batch was determined from six randomly-selected vials by calculating the weight difference between the capped and sealed empty (i.e., air-filled) vial and the capped and sealed deionized water-filled vial using the known density of deionized water, then averaging. Blanks were prepared by sealing and capping two vials then purging each for 20 seconds with a gentle argon stream. […]

Compound	solubility thermodynamic ([1]; water, no excipients) [mg/mL]	Relative N2O Yield (90 minute incubation) [2] [%]	Relative N2O Yield (360 minute incubation) ([2]; 360 minute incubation) [%]	pH of the sample in water ([1]; approximately 300 mg/mL in water before pH adjustment)	solubility ([1]; water without excipients, pH 2.8, thermodynamic from solid, water, no excipients, not accounting for the volume contribution of the compound, read-out: concentration achieved in water) [mg/mL]	observed solution concentration by HPLC ([1]; water, after pH adjustment to 4.0 with 0.1 N NaOH) [mg/mL]
CS(=O)(=O)c1cccc(S(=O)(=O)NO)c1 [(2), N-Hydroxy-3-methanesulfonylbenzene-1-sulfonamide]	~10 (≈ 39.8 mM)	82	94	–	–	–
Cc1ccc(S(=O)(=O)NO)o1 [Compound (1), N-Hydroxy-5-methylfuran-2-sulfonamide]	> 100	52	–	2.8	≥ 300	268
